± gives the expanded uncertainty stated by the source.
Conditions: Liquid, Closed cell (Static) method

SMILES	vapor or sublimation pressure (254.31 K)	vapor or sublimation pressure (259.27 K)	vapor or sublimation pressure (269.26 K)	vapor or sublimation pressure (279.47 K)	vapor or sublimation pressure (287.94 K)
CC(F)F [1,1-difluoroethane]	127 ± 10 kPa	156 ± 10 kPa	231 ± 10 kPa	331 ± 10 kPa	437 ± 10 kPa
CCC [propane]	257 ± 10 kPa	303 ± 10 kPa	422 ± 10 kPa	574 ± 10 kPa	727 ± 10 kPa
